Data from patent publication US6069132A, “Phosphazole compounds” (priority 1997, dated 2000).
Values after ≈ are worked out from the molar mass of the structure shown. “Also recorded” adds a separate entry of the source. Like-named read-outs stand apart in the source and are kept apart here.

How the values were obtained:
[1] = Cytotoxicity on static Vero cells; assay type: cell-based; conditions: african green monkey, Table 4, 50% cell death (static cells), read-out: TC50 Static Vero
Procedure: Cell Culture. Vero (African Green Monkey kidney cells) and MRC-5 (diploid Human Embryonic Lung fibroblasts) cells were obtained from the American Type Culture Collection (ATCC) and were grown in minimal essential medium (MEM) with Earl's salts and glutamine (GIBCO BRL, Life Technologies, Inc.) with 10% heat inactivated fetal bovine serum (GIBCO BRL) and penicillin (100 μg/mL)/streptomycin (100 μg/mL).
Cytotoxicity Analysis. The cytotoxicity of the compound was assayed using few the CellTiter 96™ Aqueous Non-Radioactive Cell Proliferation (MTS) Assay (Promega). Briefly, viable cell number was determined by trypan blue staining and cells (MRC-5 and Vero) were resuspended in minimal essential medium (MEM) supplemented with 10% FBS (GIBCO). Eighty microliters of cell suspension (1.7×10^4 cells/well) was dispensed onto a 96-well microtiter plates. At this time 20 μL of drug (or control) was added to appropriate wells. Each concentration was assayed in quadruplicate. The plates were incubated at 37° C. in a humidified 5% CO2 atmosphere for 4 days and MTS assay was performed according to the manufacturer's instructions. The average absorbence of the sample was graphed for each concentration and the data obtained was used to calculate TC50 (the concentration necessary to give one-half maximum growth) for each compound.

IL-1β = test: Inhibition of IL-1β in LPS-stimulated PBMCs; assay type: cell-based, human; conditions: for inhibition at 10 µg/mL / inhibition at 50 µg/mL / inhibition at 100 µg/mL / inhibition at 250 µg/mL: Homo sapiens, PBMC; for inhibition at 10 µg/mL: 10 μg/ml; for inhibition at 50 µg/mL: 50 μg/ml; for inhibition at 100 µg/mL: 100 μg/ml; for inhibition at 250 µg/mL: 250 μg/ml
Procedure: The phosphazole T70241 was further evaluated for its activity against IL-1β in PBMCs stumulated with LPS and aliquotes collected after 4, 24 and 48 hour post-stimulation.
(§1) Primary cell assays. Primary human peripheral blood mononuclear cells (PBMCS) were isolated as described by Ojwang et al. (114). Isolated monocytes were added to 24-well cluster plates (Costar, Cambridge, Mass.) at a concentration of 1×10^5 viable cells per well. Culture medium or test material dilutions in culture medium were added to the wells, the plates were then incubated at 37° C. for one hour. […] The plates were incubated an additional 4, 24 or 48 hours. The supernatant fluids were then harvested and centrifuged to pellet cells or cellular debris, and the supernatant fluids were stored at -70° C. until they were assayed for the presence of TNFα using a commercially available ELISA kit, such as that described in Example 46.

TNFα [2] = test: Inhibition of TNFα in LPS-stimulated PBMCs; assay type: cell-based, human; conditions: for inhibition at 10 µg/mL / inhibition at 50 µg/mL / inhibition at 100 µg/mL / inhibition at 250 µg/mL: Homo sapiens, PBMC; for inhibition at 10 µg/mL: 10 μg/ml; for inhibition at 50 µg/mL: 50 μg/ml; for inhibition at 100 µg/mL: 100 μg/ml; for inhibition at 250 µg/mL: 250 μg/ml
Procedure: as §1

PBMCs = test: Viability of PBMCs exposed to test compound; assay type: cell-based, human; conditions: 48 hours of exposure
[3] = Viability of PBMCs exposed to test compound; assay type: cell-based, human; conditions: human, pbmcs, 48 h, +LPS, read-out: % Viable Cells
TNFα [4] = test: Inhibition of TNFα production in LPS-stimulated THP-1 cells (ELISA); assay type: cell-based, human; conditions: for inhibition at 10 µg/mL / inhibition at 100 µg/mL / IC50: Homo sapiens; for inhibition at 10 µg/mL: 10 μg/mL; for inhibition at 10 µg/mL / inhibition at 100 µg/mL: THP-1, 6 h post-stimulation (FIG. 2), read-out: percent inhibition of TNFα production; for inhibition at 100 µg/mL: 100 μg/mL; for IC50: Table 2, LPS-stimulated THP-1, 6 h post-stimulation
Procedure: Cell line. THP-1 cells (human monocyte) were maintained in RPMI 1640 medium containing 25 mM Hepes buffer, 2 mM L-glutamine, 50 units of penicillin per mL, 50 μg of streptomycin sulfate per mL, and 10% heat-inactivated fetal bovine serum (FBS) in a humidified incubator containing 5% CO2. The cells were split 1:4 weekly as recommended by the American Type Culture Collection (ATCC).
TNFα assay. Varying concentrations of the test compound or control compound were added to THP-1 cells plated at a density of 1×10^6cells/mL in 600 μL of 10% RPMI in a 48 well plate. After one hour the cells were stimulated with 0.5 μg of lipopolysaccharide (LPS; Sigma, lot number 43H40491) per mL. Six hours post-stimulation supernatants were collected and assayed for TNFα or IL-1β production using a commercially available cytokine detection ELISA (Enzyme Linked Immunosorbent Assay) kit according to the suppliers instructions. A suitable assay kit may be obtained from Biosource, or R and D systems. A novel xanthine analog, HWA-3138, having the structure (as shown below) was used as the control compound (30) in this study to monitor the response of the THP-l cells. Xanthine analogs are known inhibitors of TNFα but not IL-1β. In the following experiments compound HWA-3138 was used as a positive control. [drawing 58]
Time of Addition. Varying concentrations of test or control compounds were added to THP-1 cells (1×10^6 cells/mL) at different time points post-stimulation using 0.5 μg of LPS (Sigma, lot number 43H40491) per mL in 300 μL of 10% RPMI in a 48 well plate. Six hours post-stimulationsupernatants were collected and assayed for TNFα or IL-1β production using a Biosource cytokine detection ELISA (Enzyme Linked Immunosorbent Assay) kit according to the supplier's instructions.
The membrane bound TNFα was separated from the free TNFα in the culture medium at 6 hours post-LPS stimulation as follows: The corresponding cells were centrifuged at 3500 rpm (~1,000×g) for 6 min. The supernatants were removed and the cell pellets were then resuspended in 200 μL of 0.25 mM Tris-HCl (pH 7.4). The cell associated TNFα was prepared by freezing the cell suspension in dry ice/ethanol and thawing at 37° C. three times with Vortexing in-between freeze-thaw cycles. Each cycle was 4-5 min apart.
To determine the long-term effects of phosphazole compound T70241 on TNFα production after a single treatment, THP-1 cells were pre-incubated with T70241, washed and resuspended in drug free medium. The xanthine analog HWA-3138 was used as a control.

[5] = lowest concentration tested, 6 h post-LPS (FIG. 4)

Nc1ncnc2pc[nH]c12 (stereo not shown) [T70241, 7-amino-1H-1,3-azaphospholo[4,5-d]pyrimidine]
CC50 at 96 h [1]: > 50 µg/mL
inhibition at 10 µg/mL (IL-1β; 4 h): 18%
inhibition at 10 µg/mL (IL-1β; 24 h): 6%
inhibition at 10 µg/mL (IL-1β; 48 h): 4%
inhibition at 50 µg/mL (IL-1β; 4 h): 86%
inhibition at 50 µg/mL (IL-1β; 24 h): 24%
inhibition at 50 µg/mL (IL-1β; 48 h): 36%
inhibition at 100 µg/mL (IL-1β; 4 h): 98%
inhibition at 100 µg/mL (IL-1β; 24 h): 78%
inhibition at 100 µg/mL (IL-1β; 48 h): 70%
inhibition at 250 µg/mL (IL-1β; 4 h): 99.7%
inhibition at 250 µg/mL (IL-1β; 24 h): 86%
inhibition at 250 µg/mL (IL-1β; 48 h): 75%
inhibition of IL-1β in PBMCs (IL-1β; up to 48 hour): inhibited IL-1β up to 48 hour in a dose dependent fashion
TNFα production in PBMCs (TNFα [2]; 48 hours post-LPS induction): significantly reduce the levels of TNFα production in the PBMCs
inhibition at 10 µg/mL (TNFα [2]; 4 h): 0%
inhibition at 10 µg/mL (TNFα [2]; 24 h): -3%
inhibition at 10 µg/mL (TNFα [2]; 48 h): -9%
inhibition at 50 µg/mL (TNFα [2]; 4 h): 50%
inhibition at 50 µg/mL (TNFα [2]; 24 h): 58%
inhibition at 50 µg/mL (TNFα [2]; 48 h): 51%
inhibition at 100 µg/mL (TNFα [2]; 4 h): 76%
inhibition at 100 µg/mL (TNFα [2]; 24 h): 81%
inhibition at 100 µg/mL (TNFα [2]; 48 h): 79%
inhibition at 250 µg/mL (TNFα [2]; 4 h): 76%
inhibition at 250 µg/mL (TNFα [2]; 24 h): 84%
inhibition at 250 µg/mL (TNFα [2]; 48 h): 82%
PBMC viability / toxicity (PBMCs): cell viability was not affected; also recorded: minimal
viability at 48 h ([3]; 10 μg/ml): 104%
viability at 48 h ([3]; 50 μg/ml): 83%
viability at 48 h ([3]; 100 μg/ml): 94%
viability at 48 h ([3]; 250 μg/ml): 88%
levels of cell associated and free TNFα (TNFα [4]; 6 hours post-LPS (FIG. 4)): able to reduce the levels of both cell associated and free TNFα
inhibition at 10 µg/mL (TNFα [4]): ~25%
inhibition at 100 µg/mL (TNFα [4]): ~90%
IC50 (TNFα [4]): 23.9 µg/mL (≈ 157 µM)
TNFα level on late addition (TNFα [4]; compound added 5 hours post-LPS, read at 6 h (FIG. 3)): significantly reduce the level of TNFα in the culture medium; also recorded: sharply inhibit the amount of cytokine in the culture
inhibition of TNFα production compared to control HWA-3138 (TNFα [4]; concentrations as little as 10 μg/mL (FIG. 2)): inhibits TNFα production in these cells better than the control xanthine compound
reduction of extracellular TNFα (TNFα [4]; [5]): about 50%
reduction of membrane-bound (intracellular) TNFα (TNFα [4]; [5]): ~30%
long-term inhibition of TNFα production after a single treatment (TNFα [4]; pre-incubated, washed, drug free medium (FIG. 5)): in a dose dependent fashion for 72 hours after the drug removal

CCCCCn1cpc2ncnc(N)c21 (stereo not shown) [T70254, 7-Amino-1-(n-pentyl)-1,3-azaphospholo[4,5-d]pyrimidine]
CC50 at 96 h [1]: 18.2 µg/mL (≈ 81.8 µM)
inhibition of TNFα production by T70254 (TNFα [4]; 6 hours, LPS (FIG. 2)): significantly inhibits TNFα production in THP-1 cells
inhibition at 10 µg/mL (TNFα [4]): ~30%
inhibition at 100 µg/mL (TNFα [4]): ~55%
IC50 (TNFα [4]): 19.4 µg/mL (≈ 87.3 µM)
